Data: patent publication US10829441B2, “Reactive oxygen species-sensitive nitric oxide synthase inhibitors for the treatment of ischemic stroke” (The University of Toledo, priority 2017, dated 2020)
Values joined by “and” are separate entries in the source; they are usually repeats but may differ in a detail not shown here. Identical values can stand only once. “Also recorded” adds a separate entry of the source. One block for each compound: values may come before it.

Columns and labels:
[1] = test system: SH-SY5Y cells; assay: OGD-induced formation of 6 from 5 in SH-SY5Y cells by LC-MS/MS; format: cell-based, Human; conditions: for level of 6 as 6:5 AUC: cell lysate (intracellular); for level of 6: supernatant
Description: (§1) Growth medium was removed from SH-SY5Y cells and replaced with sterile HBSS (140 mM NaCl, 3.5 mM KCl, 0.4 mM KH2PO4, 5 mM NaHCO3, 1.3 mM CaCl2, 1.2 mM MgSO4, 20 mM HEPES, pH 7.4, bubbled with 95%/5% N2/CO2), and placed in an air-tight container subsequently purged three times with 95%/5% N2/CO2. The container was then placed in a 37° C. incubator for 1.5 hr. After OGD, the cells were returned to a normoxic environment, and medium was replaced with growth medium and vehicle or treatment for 24 hr to simulate reperfusion. Sham cells were left in growth medium under a normoxic environment. Viability was measured by adding 10% Presto-Blue® Cell Viability Reagent (Thermo Fisher) for 30 min, and reading fluorescence at 560 nm/590 nm excitation/emission. Viability is reported as a ratio to vehicle-treated control, and readings result from separate OGD experiments (e.g. n=6 was from 6 different OGD assays). The experimental furoxan IS-1-41 was used as a positive control for OGD viability due to its reproducible protection in this paradigm.
(§2) Synthesized 5, and purchased 4(1H-Imidazol-1-yl)benzaldehyde (IBA, Sigma) were used to determine LC-MS/MS fragmentation. A solution of 5+ONOO^−/HCl from EPR studies was used for 6 fragmentation. MRM analysis of IBA (m/z 173.10→91.10, 104.10, 117.05; RT: 4.13 min), 5 (m/z 248.20→148.00, 134.15, 190.05; RT: 4.81 min), and 6 (m/z 177.00→119.10, 90.95, 65.15; RT: 3.87 min) were determined. A standard curve for 5 was generated using pure samples applied to blank matrix (0.01 μM, 0.1 μM, 0.5 μM, 1.0 μM, and 5.0 μM; R2=0.99) using the above HPLC solvents and LC curve at 0.4 mL/min.
(§3) In vitro supernatant samples were spiked with internal standard (200 μL 500 nM IBA in 2% FA) and used as collected, while cells were detached by trypsin, centrifuged (14 k rpm, 5 min, 4° C.) to isolate the pellet, then lysed by sonication (Sonic Dismembrator 500, Fisher) in 1 mL cold PBS+internal standard. Blood samples (100 μL) were spiked with internal standard, and centrifuged to collect the supernatant. Brain samples were weighed, homogenized by a Bullet Blender Storm (Next Advance Inc.) in 500 μL cold PBS+internal standard for 1 min at 4° C., then centrifuged to collect the supernatant. All samples were then worked up by solid phase extraction (Evolute Ex-press ABN cartridge, 30 mg/l mL, Biotage) using a Vac-master manifold (Biotage). Columns were washed with dH2O (1 mL), and analytes were eluted with MeOH (1 mL) and evaporated to dryness by high flow air purge. Samples were reconstituted in 200 μL 95:5 mobile phase A:B and analyzed by LC-MS/MS (2.0 μL injection volume). All samples were run in duplicate, and AUC for 5 and 6 were normalized to the intra-run IBA AUC to account for loss during workup. 5 concentrations were determined using std. curve, while 6 was expressed as a percentage of 5 AUC.

[2] = test system: LPS-stimulated SIM-A9 cells; assay: Griess assay of nitrite in LPS-stimulated SIM-A9 microglia; format: cell-based, mouse; conditions: LPS 100 ng/mL; for nitrite / NO production after LPS (in words): 1.0 μM to 50 μM, 24 hr (FIG. 14); for decrease in nitrite: 24 hr; for nitrite after LPS (in words): 24 hr (FIG. 15B)
Description: (§4) Human neuroblastoma SH-SY5Y cells and SIM-A9 mouse microglia (ATCC) were separately cultured on poly-D-lysine coated plates in 1:1 Dulbecco's Modified Eagle Medium/Ham's F12 (DMEM/F12) medium containing 5% fetal bovine serum, 5% horse serum, and penicillin-streptomycin. Cultures were stored in a 37° C. incubator with a 5% CO2 atmosphere. Cells were allowed to adhere overnight prior to subjection to experimental systems. 1×10^6 cells SH-SY5Y cells on 96-well plates were used for OGD experiments, and SIM-A9 cells were plated at a density of 1×10^6 on 24-well plates for Griess experiments.
SIM-A9 cells were treated with 100 ng/mL lipopolysaccharide (LPS, Sigma) along with vehicle or drug treatment for 24 hr. Conditioned medium was then diluted 1:1 with griess reagent (0.4% naphthylethylenediamine dihydro-chloride, and 4% sulphanilamide in 10% phosphoric acid), and analyzed by colorimetry at 540 nm after […]. Nitrite levels were reported as a ratio to LPS-treated, vehicle control.

[3] = Plasma and brain levels of 5 and 6 by LC-MS/MS 25 min after intravenous administration; format: in vivo, C57BL/6 mice
Description: (§5) Animals were anesthetized and the incision was performed as above to expose the temporal bone, through which the MCA was visible. The end of a fiber optic cable fitted to a MoorVMS-LDF Laser Doppler Monitor (Moor Instruments) was positioned in place over the MCA. The baseline CBF as flux was monitored for 5 min prior to intravenous injection by lateral tail vein of normal saline vehicle, […] (20 mg/kg), or 5. Measurements were taken every 5 minutes in triplicate for each animal, and reported as ratio to baseline. Animals were sacrificed at 25 min by CO2 inhalation, blood was collected into K2EDTA coated tubes (BD Microtainer®), and brains were rapidly dissected out and frozen on dry ice for LC-MS/MS analysis.
as §2, §3

[4] = test system: SH-SY5Y cells; assay: Oxygen-glucose deprivation (OGD) viability of SH-SY5Y cells (PrestoBlue); format: cell-based, Human; conditions: for viability relative to vehicle (in words) / viability, ratio to vehicle control: 1.5 hr OGD, 24 hr treatment
Description: as §4, §1

[5] = test system: phospho-Akt/total Akt ratio; assay: Western blot of SH-SY5Y cells exposed to OGD: pAkt/Akt; format: cell-based, Human; conditions: 1.0 μM, 24 hr treatment
[6] = HPLC-PDA analysis of nitrone decomposition in radical-generating systems; format: physicochemical; conditions: for decomposition to aldehyde in .OH (Fe—H2O2) system (in words) / decomposition to aldehyde in O2.^−/HO2. (KO2) system (in words) / decomposition to aldehyde in ONOO^−/HCl system (in words): 24 hr incubation at 37° C.
Description: To a stirring solution of 5 (5.0 mg, 1.0 eq) in 785 μL PBS was added 20 μL 6 N HCl at 37° C. Peroxynitrite (200 μL of a 50 mM solution in 0.3 M NaOH, 0.5 eq) was added in 50 μL aliquots over 5 min. The reaction was allowed to stir for 1 hr and monitored by HPLC-PDA. The solution was extracted with CH2Cl2 (2×0.5 mL) and the aqueous fractions were pooled then lyophilized. Addition of ACN (1.0 mL) to the white solid followed by filtration allowed separation from the insoluble salts. Lyophilization afforded 6 as a white solid (1.2 mg, 33.7%), NMR (CD3OD, 400 MHz): δ 10.04 (1H, s), δ 7.93-7.95 (2H, m), δ 7.71-7.65 (2H, m), 4.58 (2H, s), δ 2.30 (3H, s).
EPR spectra were collected at ambient temperature with microwave power 12.6 mW, frequency 9.86 GHz, receiver gain 1.0×10^5 or 1.0×10^4, modulation amplitude 1 G, scan time 20.48 sec, time constant 40.96 msec, and sweep width 120 G. Phosphate buffered saline (PBS) used for EPR was supplemented with diethylenetriaminepent-acetic acid (DTPA, 100 μM). ROS-generating solutions were rapidly added to solutions of indicated spin trap and taken up in 50 μL glass capillary tubes for EPR spectral acquisition. For HPLC-PDA analysis, solutions were allowed to incubate for 24 hr at 37° C., then diluted 1:1000 in 95:5 mobile phase A:B, and analyzed as above. Benzaldehyde (Sigma) was run separately as a control to compare to PBN-ROS systems and confirm PBN decomposition.
A 50 μL final 20% PBS/DMSO solution of 35 mM 5 or PBN contained 10 μL saturated KO2 DMSO.
A 50 μL final 30% PBS/DMSO solution of 35 mM 5 or PBN contained 90 mM FeSO4 and 1% H2O2.
A solution of ONOO^− in 0.3 M NaOH (Cayman Chemical) was determined to be 50 mM by absorbance at 302 nm using the literature extinction coefficient (1670 M^−1cm^−1). A 50 μL final 30% PBS/DMSO solution of 5 or PBN contained 10 mM ONOO^− at pH˜6 (HCl).

[7] = test system: cerebral blood flow (CBF); assay: Laser Doppler cerebral blood flow (CBF) over the MCA of anesthetized mice; format: in vivo, C57BL/6 mice; conditions: for time point at which CBF increased: isoamyl nitrate vs low dose of 5 (1 mg/kg), intravenous
Description: as §5

[8] = test system: cleaved caspase-3; assay: Western blot of SH-SY5Y cells exposed to OGD: cleaved caspase-3; format: cell-based, Human; conditions: 1.0 μM, 24 hr treatment, vs vehicle
[9] = test system: permanent MCA occlusion (pMCAO); format: in vivo
[10] = test system: 3-Nitrotyrosine (3-NT); assay: Western blot of SH-SY5Y cells exposed to OGD: 3-nitrotyrosine; format: cell-based, Human; conditions: 1.0 μM, 24 hr treatment, vs vehicle
[11] = 25 min after intravenous 5, n=6

Compound: CC(=N)NCc1cccc(C=O)c1 [compound 6, N-[(3-formylphenyl)methyl]ethanimidamide]
level of 6 as 6:5 AUC ([1]; OGD-exposed cells treated 24 hr with 10 μM 5): 129 % 6:5 AUC
level of 6 as 6:5 AUC ([1]; sham cells treated 24 hr with 10 μM 5): 29 % 6:5 AUC
level of 6 ([1]; OGD-exposed cells treated with 5): 18.6 % of 5 AUC
level of 6 ([1]; sham cells treated with 5): 7.88 % of 5 AUC
nitrite / NO production after LPS (in words) [2]: dose-dependent decrease in nitrite
decrease in nitrite ([2]; 1.0 μM): ~19%
decrease in nitrite ([2]; 50 μM): −33%
level of 6 in brain [3, 11]: 24.5%±0.1%
level of 6 in plasma [3, 11]: 12.7%±0.2%

decomposition to aldehyde in .OH (Fe—H2O2) system (in words) [6]: minor formation
decomposition to aldehyde in O2.^−/HO2. (KO2) system (in words) [6]: Significant BnA formation
decomposition to aldehyde in ONOO^−/HCl system (in words) [6]: Significant BnA formation
Compound: CC(C)(C)[N+]([O-])=Cc1ccccc1 [PBN, N-tert-butyl-α-phenylnitrone, reference compound]
nitrite / NO production after LPS (in words) [2]: not observed to cause a reduction in nitrate
nitrite after LPS (in words) ([2]; 1.0 μM): attenuated
viability relative to vehicle (in words) ([4]; 0.05 μM to 100 μM): did not approach significance at any concentration tested
phospho-Akt/total Akt ratio (in words) [5]: increase was also observed; also recorded: increase in Akt phosphorylation, although not significant

Compound: CC(C)CCO[N+](=O)[O-] [isoamyl nitrate, reference compound]
CBF over 20 min ([7]; 20 mg/kg intravenous): 111%±4.0%
time point at which CBF increased [7]: 20 min

Compound: CC(=N)NCc1cccc(CN)c1 [1400W, reference compound]
nitrite / NO production after LPS (in words) [2]: anti-inflammatory ability
nitrite after LPS (in words) ([2]; 1.0 μM): attenuated

Compound: CC(=N)NCc1cccc(/C=[N+](\[O-])C(C)(C)C)c1 [compound 5, N-tert-butyl-α-(3-[ethanimidamidomethyl]phenyl)nitrone]
cleaved caspase-3 reduction [8]: 47%
cell permeability (in words) [1]: cell permeable
nitrite / NO production after LPS (in words) [2]: not observed to lower NO production
nitrite after LPS (in words) ([2]; 1.0 μM): attenuated
viability, ratio to vehicle control ([4]; 0.1 μM): 1.21 times greater than vehicle
viability, ratio to vehicle control ([4]; 1.0 μM): 2.57 times greater than vehicle
viability relative to vehicle (in words) ([4]; 100 μM): decline to baseline; also recorded: not observed to be toxic, but rather non-neuroprotective
optimal dose (highest neuroprotection) ([4]; dose-finding study 0.05 μM to 100 μM): 1.0 µM
CBF over 20 min ([7]; 1 mg/kg intravenous): 126%±4.6%
CBF over 20 min ([7]; 10 mg/kg intravenous): 102%±0.7%
time point at which CBF increased [7]: 5 min
phospho-Akt/total Akt ratio ([5]; vs vehicle): 4.1 times higher
tolerability / adverse effects ([9]; 10 mg/kg and 1 mg/kg intravenous): well tolerated
forelimb grip strength (in words) ([9]; 24, 48, 72 hr after pMCAO): improved grip strength
rota rod performance (in words) ([9]; 24, 48, 72 hr after pMCAO): No significant differences
Neurological deficit scoring (NDS), 28-point system ([9]; 72 hr after pMCAO, 10 mg/kg iv at 3 and 6 hr, then 1 mg/kg twice daily): 4.2±0.4
decrease in infarct volume compared to vehicle ([9]; TTC staining 72 hr after pMCAO, 10 mg/kg iv at 3 and 6 hr, then 1 mg/kg twice daily): > 30% and 37%
3-NT ameliorated [10]: 48%
conversion of 5 to 6 by HPLC-PDA ([6]; 0.50 eq ONOO^−, PBS/HCl pH 6, 37° C., after one hour): 95.4%
decomposition to aldehyde in .OH (Fe—H2O2) system (in words) [6]: substantial formation of 6; also recorded: Minor 6 formation
decomposition to aldehyde in O2.^−/HO2. (KO2) system (in words) [6]: substantial formation of 6; also recorded: significant 6 formation
decomposition to aldehyde in ONOO^−/HCl system (in words) [6]: complete conversion; also recorded: no observed 5 remaining
Kp at 25 min ([3]; C57BL/6, mouse, in vivo): 0.029 ± 0.01
half-life (in words) ([3]; mouse, in vivo): short half-life
